Test results: patent publication US11214803B2, “Modulators of YAP1 expression” (Ionis Pharmaceuticals, Inc., priority 2019, dated 2022)
Strand notation (5' to 3'): a small letter for the sugar, then the base; units joined by * are phosphorothioate-linked, units joined directly phosphodiester-linked; [ ] holds rarer units or linkages, { } end groups; capitals alone tell only the bases. k = constrained ethyl (cEt); [5mC] = 5-methylcytosine; d = 2'-deoxy (DNA)

Assays:
[1] = Tolerability in CD-1 mice, plasma chemistry markers (Example 19); assay type: in vivo; conditions: male CD-1 mice, 50 mg/kg s.c. twice a week for four weeks (8 treatments), day 26
Protocol: CD-1 mice were treated with modified oligonucleotides selected from studies described above and evaluated for changes in the levels of various plasma chemistry markers.
Groups of four male CD-1 mice at 4-6 weeks of age (obtained from Charles River) were injected subcutaneously twice a week for four weeks (for a total of 8 treatments) with 50 mg/kg of modified oligonucleotides. One group of male CD-1 mice was injected with PBS. Mice were euthanized on day 26 post start of treatment (24 hrs following the final administration).

NCI H292 cells = experiment: Cell proliferation assay in NCI H292 cells, CellTiter-Glo (Example 32); assay type: cell-based, human; conditions: free uptake, approximately 144 hours
Protocol: Modified oligonucleotides described in the studies above were tested at various doses in mucoepidermoid pulmonary carcinoma cell line […]. A control oligonucleotide 792169 was also tested.
(§1) Cultured NCI H292 cells at a density of 1000 cells/well were treated using free uptake with modified oligonucleotides diluted to concentrations described in the tables below. After approximately 144 hours, cell proliferation was measured using the luminescent cell viability CellTiter-Glo® 2.0 Assay (Promega). Results are presented in the tables below as percent control of the amount of luminescence in samples treated with modified oligonucleotides relative to untreated control cells (% UTC).

Yap1 mRNA [2] = experiment: Yap1 mRNA in UPCI:SCC090 cells, RNA analysis (Example 47); assay type: cell-based, human; conditions: free uptake, approximately 48 hours
Protocol: Modified oligonucleotides described in the studies above were tested at various doses in tongue squamous cell carcinoma cell line UPCI:SCC090. A control oligonucleotide 792169, described herein above, was also tested.
(§2) Cultured UPCI:SCC090 cells at a density of 5000 cells per well were treated using free uptake with modified oligonucleotides diluted to concentrations described in the tables below. After approximately 48 hours, Yap1 mRNA levels were measured as previously described using the Human Yap1 primer-probe set RTS4814. Yap1 mRNA levels were normalized to actin-beta content, as measured by primer probe set RTS5002. Results are presented in the tables below as percent control of the amount of Yap1 mRNA relative to untreated control cells (% UTC).

Yap1 mRNA [3] = experiment: Yap1 mRNA in SCC-15 cells, RNA analysis (Example 41); assay type: cell-based, human; conditions: free uptake, approximately 48 hours
Protocol: Modified oligonucleotides described in the studies above were tested at various doses in tongue squamous cell carcinoma cell line SCC-15. A control oligonucleotide 792169, described herein above, was also tested.
as §2, with “SCC-15” for “UPCI:SCC090”

SCC-25 cells = experiment: Cell proliferation assay in SCC-25 cells, CellTiter-Glo (Example 42); assay type: cell-based, human; conditions: free uptake, approximately 144 hours
Protocol: Modified oligonucleotides described in the studies above were tested at various doses in tongue squamous cell carcinoma cell line SCC-25. A control oligonucleotide 792169, described herein above, was also tested.
as §1, with “SCC-25” for “NCI H292”

BICR56 cells = experiment: Cell proliferation assay in BICR56 cells, CellTiter-Glo (Example 33); assay type: cell-based, human; conditions: free uptake, approximately 144 hours
Protocol: Modified oligonucleotides described in the studies above were tested at various doses in squamous cell carcinoma adherent keratinocyte cell line BICR56. A control oligonucleotide 792169 was also tested.
as §1, with “BICR56” for “NCI H292”

SNU-1076 cells = experiment: Cell proliferation assay in SNU-1076 cells, CellTiter-Glo (Example 45); assay type: cell-based, human; conditions: free uptake, approximately 144 hours
Protocol: Modified oligonucleotides described in the studies above were tested at various doses in upper aerodigestive tract/laryngeal squamous cell carcinoma line SNU-1076. A control oligonucleotide 792169, described herein above, was also tested.
as §1, with “SNU-1076” for “NCI H292”

BICR-22 cells = experiment: Cell proliferation assay in BICR-22 cells, CellTiter-Glo (Example 35); assay type: cell-based, human; conditions: free uptake, approximately 144 hours
Protocol: Modified oligonucleotides described in the studies above were tested at various doses in tongue squamous carcinoma (lymph node metastasis) cell line BICR-22. A control oligonucleotide 792169, described herein above, was also tested.
as §1, with “BICR-22” for “NCI H292”

Substance | ALT [1] [U/L] | AST [1] [U/L] | BUN [1] [mg/dL] | TBIL [1] [mg/dL] | Antiproliferative effect (cell proliferation, luminescence) (NCI H292 cells; 0.04 μM) [% UTC] | Antiproliferative effect (cell proliferation, luminescence) (NCI H292 cells; 0.2 μM) [% UTC] | Antiproliferative effect (cell proliferation, luminescence) (NCI H292 cells; 1 μM) [% UTC] | Antiproliferative effect (cell proliferation, luminescence) (NCI H292 cells; 5 μM) [% UTC] | human Yap1 mRNA expression (Yap1 mRNA [2]; 0.04 μM) [% UTC] | human Yap1 mRNA expression (Yap1 mRNA [2]; 0.2 μM) [% UTC] | human Yap1 mRNA expression (Yap1 mRNA [2]; 1 μM) [% UTC] | human Yap1 mRNA expression (Yap1 mRNA [2]; 5 μM) [% UTC] | human Yap1 mRNA expression (Yap1 mRNA [3]; 0.04 μM) [% UTC] | human Yap1 mRNA expression (Yap1 mRNA [3]; 0.2 μM) [% UTC] | human Yap1 mRNA expression (Yap1 mRNA [3]; 1 μM) [% UTC] | human Yap1 mRNA expression (Yap1 mRNA [3]; 5 μM) [% UTC] | Antiproliferative effect (cell proliferation, luminescence) (SCC-25 cells; 0.08 μM) [% UTC] | Antiproliferative effect (cell proliferation, luminescence) (SCC-25 cells; 0.4 μM) [% UTC] | Antiproliferative effect (cell proliferation, luminescence) (SCC-25 cells; 2 μM) [% UTC] | Antiproliferative effect (cell proliferation, luminescence) (SCC-25 cells; 10 μM) [% UTC] | further results
1198439 (AGTGTATGTCAGAAGA; sugar, 5-methylcytosine, phosphorothioate modifications, further chemistry not given here) [compound 1198439] | 210 | 219 | 18 | 0.25 | – | – | – | – | – | – | – | – | – | – | – | – | – | – | – | – | –
1198440 (AAGTGTATGTCAGAAG; cEt, 2'-MOE, 5-methylcytosine, phosphorothioate modifications, further chemistry not given here) [compound 1198440] | 121 | 140 | 19 | 0.22 | 100 | 83 | 30 | 15 | 60 | 26 | 10 | 5 | 39 | 10 | 4 | 2 | 56 | 27 | 20 | 16 | Antiproliferative effect (cell proliferation, luminescence) (BICR56 cells; 0.04 μM): 28 % UTC; Antiproliferative effect (cell proliferation, luminescence) (BICR56 cells; 0.2 μM): 10 % UTC; Antiproliferative effect (cell proliferation, luminescence) (BICR56 cells; 1 μM): 6 % UTC; Antiproliferative effect (cell proliferation, luminescence) (BICR56 cells; 5 μM): 4 % UTC; Antiproliferative effect (cell proliferation, luminescence) (SNU-1076 cells; 0.04 μM): 99 % UTC; Antiproliferative effect (cell proliferation, luminescence) (SNU-1076 cells; 0.2 μM): 87 % UTC; Antiproliferative effect (cell proliferation, luminescence) (SNU-1076 cells; 1 μM): 81 % UTC; Antiproliferative effect (cell proliferation, luminescence) (SNU-1076 cells; 5 μM): 81 % UTC; Antiproliferative effect (cell proliferation, luminescence) (BICR-22 cells; 0.04 μM): 55 % UTC; Antiproliferative effect (cell proliferation, luminescence) (BICR-22 cells; 0.2 μM): 37 % UTC; Antiproliferative effect (cell proliferation, luminescence) (BICR-22 cells; 1 μM): 29 % UTC; Antiproliferative effect (cell proliferation, luminescence) (BICR-22 cells; 5 μM): 19 % UTC
CGCCGATAAGGTACAC (cEt gapmer, phosphorothioate backbone, further chemistry not given here) [ION 792169, reference compound] | – | – | – | – | 98 | 97 | 99 | 92 | 100 | 108 | 112 | 84 | 91 | 100 | 102 | 105 | 97 | 101 | 96 | 92 | Antiproliferative effect (cell proliferation, luminescence) (BICR56 cells; 0.04 μM): 106 % UTC; Antiproliferative effect (cell proliferation, luminescence) (BICR56 cells; 0.2 μM): 100 % UTC; Antiproliferative effect (cell proliferation, luminescence) (BICR56 cells; 1 μM): 92 % UTC; Antiproliferative effect (cell proliferation, luminescence) (BICR56 cells; 5 μM): 87 % UTC; Antiproliferative effect (cell proliferation, luminescence) (SNU-1076 cells; 0.04 μM): 97 % UTC; Antiproliferative effect (cell proliferation, luminescence) (SNU-1076 cells; 0.2 μM): 104 % UTC; Antiproliferative effect (cell proliferation, luminescence) (SNU-1076 cells; 1 μM): 106 % UTC; Antiproliferative effect (cell proliferation, luminescence) (SNU-1076 cells; 5 μM): 108 % UTC; Antiproliferative effect (cell proliferation, luminescence) (BICR-22 cells; 0.04 μM): 97 % UTC; Antiproliferative effect (cell proliferation, luminescence) (BICR-22 cells; 0.2 μM): 95 % UTC; Antiproliferative effect (cell proliferation, luminescence) (BICR-22 cells; 1 μM): 82 % UTC; Antiproliferative effect (cell proliferation, luminescence) (BICR-22 cells; 5 μM): 65 % UTC
715487 (kA*kT*kT*dA*d[5mC]*dT*dT*d[5mC]*dA*dT*dA*dG*d[5mC]*kT*kT*kA) [compound 715487] | – | – | – | – | 87 | 90 | 69 | 20 | 70 | 37 | 26 | 14 | 69 | 33 | 12 | 5 | 82 | 48 | 25 | 15 | Antiproliferative effect (cell proliferation, luminescence) (BICR56 cells; 0.04 μM): 70 % UTC; Antiproliferative effect (cell proliferation, luminescence) (BICR56 cells; 0.2 μM): 26 % UTC; Antiproliferative effect (cell proliferation, luminescence) (BICR56 cells; 1 μM): 9 % UTC; Antiproliferative effect (cell proliferation, luminescence) (BICR56 cells; 5 μM): 4 % UTC; Antiproliferative effect (cell proliferation, luminescence) (SNU-1076 cells; 0.04 μM): 91 % UTC; Antiproliferative effect (cell proliferation, luminescence) (SNU-1076 cells; 0.2 μM): 90 % UTC; Antiproliferative effect (cell proliferation, luminescence) (SNU-1076 cells; 1 μM): 86 % UTC; Antiproliferative effect (cell proliferation, luminescence) (SNU-1076 cells; 5 μM): 79 % UTC; Antiproliferative effect (cell proliferation, luminescence) (BICR-22 cells; 0.04 μM): 70 % UTC; Antiproliferative effect (cell proliferation, luminescence) (BICR-22 cells; 0.2 μM): 56 % UTC; Antiproliferative effect (cell proliferation, luminescence) (BICR-22 cells; 1 μM): 28 % UTC; Antiproliferative effect (cell proliferation, luminescence) (BICR-22 cells; 5 μM): 22 % UTC
1198872 (TGTATGTCAGAAGAGT; chemically modified gapmer, further chemistry not given here) [compound 1198872] | 192 | 207 | 22 | 0.25 | – | – | – | – | – | – | – | – | – | – | – | – | – | – | – | – | –
